Source: patent US20180235936A1, “CANCER TREATMENT METHODS” (University of Notre Dame du Lac, priority 2017, published 2018)
Entries after “also recorded” stand apart in the source; their conditions may differ.

What was measured:
[1] = test system: AsPC1 cells and CAF1 cells tumors; test: Subcutaneous AsPC1 + CAF1 tumor growth in NOD/SCID mice; assay type: in vivo; conditions: intraperitoneally twice weekly for two weeks
Procedure: FIGS. 10A-B illustrate graphs of NOD/SCID mice that were subcutaneously implanted with one million AsPC1 cells and 200,000 CAF1 cells. Two weeks post implantation mice were treated intraperitoneally with DMSO+PBS, DMSO+gemcitabine (GEM), or PBS+GW4869 twice weekly for two weeks. (FIG. 10A) Tumor growth over the course of the ten-day post drug treatment. (FIG. 10B) Change in tumor volume from first day of drug treatment to 10 days post initial drug treatment. *p-value<0.05. NS (not significant).
Additionally, it should be appreciated that dosages can be determined as described herein. In one embodiment, the dosage of pharmaceutical composition depends on the drug itself, its efficacy, and its toxicity. As an exemplary embodiment, 2-2.5 gg GW4869 per gram mouse body weight can be intraperitoneally injected into mice twice weekly for two weeks to achieve therapeutic results.

[2] = test system: pancreatic cancer-associated fibroblasts (CAF1); test: Exosome release from CAF1s treated with GW4869, exosomes dyed with CFSE and quantified; assay type: cell-based, human; conditions: CAFs; FIG. 8B / FIG. 12
Procedure: (§1) (FIG. 8A) AsPC1 cells were grown for 5 days in AsPC1-conditioned media (AsPC1/AsPC1), CAF1-conditioned media (CAF1/AsPC1) or CAF1-conditioned media depleted of exosomes (CAF1-ED/AsPC1) and then treated with 111M GEM for 3 days and live cells were counted. (FIG. 8B) CAF1s were treated with 20 gm GW4869 or DMSO along with 111M gemcitabine or PBS for 3 days. Exosomes in media were collected, dyed with CFSE, and quantified. (FIG. 8C) AsPC1 cells were co-cultured with AsPC1 cells, CAFs, GW4869-treated CAF1s, DMEM alone (Blank/AsPC1), or GW4869 in DMEM (Blank+GW4869) for 6 days then treated during co-culture with 111M gemcitabine for 3 days. Live co-cultured AsPC1 cells at the bottom of the plate were counted. (FIG. 8D) Snai1 expression was measured via RT-PCR in AsPC1 cells co-cultured with untreated CAFs (CAF-NT/AsPC1) or GW4869-treated CAFs (CAF-GW/AsPC1). (FIG. 8E) L3.6 cells were cultured in CAF1-conditioned (CAF1/L3.6) media or CAF1-conditioned media depleted of exosomes (CAF1-ED/L3.6). miR146a expression was measured via RT-PCR. **p-value<0.01.

microRNA-92a = microRNA-92a expression by RT-PCR in AsPC1 cells co-cultured with GW4869-treated CAFs; assay type: cell-based, human; conditions: PCAFs treated with GW4869 vs DMSO
Excerpt: FIG. 17A illustrates a graph of the results from pancreatic cancer epithelial cells (AsPC1) grown in PCAF-conditioned media; the cells expressed higher levels of microRNA-92a compared to control media, as established via RTPCR.

[3] = test system: pancreatic cancer epithelial cells; test: Scratch migration assay of pancreatic cancer epithelial cells; assay type: cell-based, human; design: dose or concentration left out as unconfirmed; conditions: GW4869, serum-free media, three days; vs DMSO
Excerpt: FIG. 20 illustrates a graph of the results from pancreatic cancer epithelial cells being grown to full confluency and placed in serum-free media to prevent cell proliferation. A scratch was made down to center of the plate to create a cell free zone for migration. Cells were then given DMSO as a control or 2011M GW4869. Images were taken each day for three days and distance of cell migration was quantified using ImageJ.

Snai1 mRNA = test: Snai1 expression by RT-PCR in AsPC1 cells co-cultured with GW4869-treated CAFs; assay type: cell-based, human; conditions: exosome secretion from PCAFs inhibited by GW4869
Procedure: as §1

[4] = test system: pancreatic cancer epithelial cells; test: Direct GW4869 treatment of pancreatic cancer epithelial cells followed by gemcitabine; percent live cells (trypan blue); assay type: cell-based, human; design: dose or concentration left out as unconfirmed; conditions: GW4869 for one day then gemcitabine for three days; vs DMSO
Excerpt: FIG. 19 illustrates a graph of the results from pancreatic cancer epithelial cells being treated with DMSO as a control or 2011M GW4869 for one day then treated with gemcitabine for three days. Live and dead cells were quantified using an automated cell counter and trypan blue staining. Percent live cells was quantified.

[5] = test system: pancreatic epithelial cancer cells (AsPC1) co-cultured with CAFs; test: Co-culture of pancreatic epithelial cancer cells with GW4869-treated CAFs, then gemcitabine; live cell count; assay type: cell-based, human; conditions: GW4869-treated CAFs (20 μM), gemcitabine for three days during co-culture
Procedure: as §1
The bottom co-cultured epithelial cells were then treated with gemcitabine for three days during co-culture. Live co-cultured epithelial cells at the bottom of the plate were quantified using an automated cell counter. *p-value<0.05; **p-value <0.01. NS (not significant).

[6] = test system: pancreatic cancer-associated fibroblasts (CAF1); test: Exosome secretion from cells during chemotherapy treatment, exosomes isolated from conditioned media and quantified; assay type: cell-based, human; conditions: most prominently from PCAFs; 4 days treatment; vs untreated
Procedure: (FIG. 4A) CAF1s were left untreated (NT) or treated with 111M gem (GT) for 4 days. Exosomes were isolated from conditioned cell media, and protein lysates were used to perform a western blot for CD81 and beta-actin (left). Isolated exosomes were examined for size and structure via transmission electron microscopy (right). (FIG. 4B) CAF1 cells transduced with a GFP-CD63 lentivirus (GFP-CD63-CAF1s) were treated with luM gemcitabine (GT) or left untreated (NT) and fluorescence was analyzed via microscopy. (FIG. 4C) Total corrected cell fluorescence of GFP-CD63-CAF1 cells was quantified using ImageJ. (FIG. 4D) Cells were treated with 11.1M gemcitabine (Fibroblasts and PANC1), 10 nM gemcitabine (L3.6), or left untreated for 4 days (NT), and exosomes were collected and quantified. Scale bar, 200 Em. *pvalue<0.05; **p-value<0.01.
FIG. 5 illustrates a graph of fold change in exosome secretion per cell. CAF1 cells were plated at 500,000 cells/flask and left untreated (control), treated with 111M gemcitabine, or 10 nM Nab-Paclitaxel for 4 days. Live cells were counted. Exosomes were isolated from conditioned-media and quantified. *p-value<0.05;**p-value<0.01.

[7] = test system: PCAF extracellular vesicle microRNAs; test: MicroRNA-Seq of extracellular vesicles from gemcitabine-treated versus PBS-treated PCAFs; assay type: cell-based, human; conditions: normalized to total RNA
Excerpt: While Snai1 and miR-146a may play an important role in promoting chemoresistance of PECCs, other potential mechanisms exist in which PCAF exosomes may increase chemoresistance. For example, by treating PCAFs with PBS as a control or gemcitabine, collecting their secreted extracellular vesicles, lysing them, collecting the microRNA within, and quantifying the microRNAs, the role of microRNAs is made clearer. […] [table]

PTEN = PTEN expression by RT-PCR in tumors extracted from treated NOD/SCID mice; assay type: in vivo; conditions: intraperitoneally twice weekly for two weeks; compared to control
Procedure: FIG. 16 illustrates a graph of the results from NOD/SCID mice being subcutaneously implanted with one million AsPC1 cells and 200,000 CAF1 cells. Two weeks post implantation mice were treated intraperitoneally with DMSO+PBS, DMSO+gemcitabine, PBS+GW4869, or gemcitabine+GW4869 twice weekly for two weeks. Tumors were extracted for RNA and PTEN expression within tumor samples was quantified via RT-PCR.

Snai1 and miR-146a = test: RT-PCR of Snai1 and miR-146a in CAF1s and CAF1 exosomes during gemcitabine treatment; assay type: cell-based, human
Procedure: (FIG. 11A) RT-PCR. miR-146a and Snai1 levels were altered in CAF1s during 1 μM GEM treatment (GT) (3 days) compared to untreated control (NT). (FIG. 11B) RT-PCR. CAF1s were treated with Snai1-siRNA, and Snai1 and miR-146a expression was measured compared to negative siRNA control treated CAFs. (FIG. 11C) Exosomes from untreated and 1 μM GEM-treated CAF1s were isolated and Snai1 mRNA and miR-146a within CAF1 exosomes was quantified via RT-PCR using relative Ct values. (FIG. 11D-E) L3.6 cells were treated with GT-CAF1 exosomes for 6 days (GTCAF1/L3.6) or left untreated (L3.6 control). AsPC1 cells were treated with GT-CAF1 exosomes for 6 days (GT-CAF1/AsPC1) or left untreated (AsPC1 control). Snai1 (FIG. 11D) and miR-146a (FIG. 11E) levels were quantified in recipient cells via RT-PCR. *p-value<0.05; **p-value<0.01.

[8] = test system: pancreatic ductal adenocarcinoma (PDAC); conditions: adjuvant gemcitabine, observed cohort; cited from earlier work
[9] = 1 μM GEM treatment (3 days) vs untreated

Structure (SMILES)	tumor growth [1]	exosome release [2]	expression of miR-92a within co-cultured PECCs (microRNA-92a)	cell migration of PECCs [3]	cellular level of Snai1 mRNA within co-cultured PECCs (Snai1 mRNA)	chemoresistance of PECCs treated directly [4]	chemoresistance of co-cultured PECCs [5]	secretion of exosomes from cells [6]	Fold Change (GEM vs. NT) of hsa-m1R-221-3p in extracellular vesicles [7]	Fold Change (GEM vs. NT) of hsa-miR-21-5p in extracellular vesicles [7]	Fold Change (GEM vs. NT) of hsa-miR-92a-3p in extracellular vesicles [7]	Fold Change (GEM vs. NT) of hsa-miR-181a-5p in extracellular vesicles [7]	Fold Change (GEM vs. NT) of hsa-miR-222-3p in extracellular vesicles [7]	PTEN expression within the tumors (PTEN)	Snai1 level in CAFs (Snai1 and miR-146a; [9])	miR-146a level in CAFs (Snai1 and miR-146a; [9])	level of Snai1 mRNA in exosomes secreted from PCAFs (Snai1 and miR-146a; 1 μM GEM-treated vs untreated)	level of miR-146a in exosomes secreted from PCAFs (Snai1 and miR-146a; 1 μM GEM-treated vs untreated)	patients eventually showing tumor recurrence [8] [%]
O=C(/C=C/c1ccc(/C=C/C(=O)Nc2ccc(C3=NCCN3)cc2)cc1)Nc1ccc(C2=NCCN2)cc1 [GW4869]	reduced tumor growth	suppresses exosome release	reduced expression; also recorded: decreased	reduced cell migration	decreased	reduced chemoresistance	reduced the chemoresistance	–	–	–	–	–	–	–	–	–	–	–	–
Nc1ccn([C@@H]2O[C@H](CO)[C@@H](O)C2(F)F)c(=O)n1 [gemcitabine]	–	–	–	–	–	–	–	increases secretion of exosomes	4.325	2.531	4.66	3.509	2.649	decreased	upregulation	upregulation	higher	higher	74
